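Each compound was tested at five concentrations against cells in 96-well plates for 48 hours. The concentration for full growth arrest is given as TGI.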
Experiments:
Experiment in all cases: NCI tumour cell line growth inhibition, 48 h
NCI-H522 lung = tested on: NCI-H522 lung
A549 NSCLC = tested on: A549 NSCLC
HCT-116 colon = tested on: HCT-116 colon
SK-MEL-2 melanoma = tested on: SK-MEL-2 melanoma
M19-MEL melanoma = tested on: M19-MEL melanoma
RPMI-8226 leukemia = tested on: RPMI-8226 leukemia
SF-268 CNS = tested on: SF-268 CNS
SK-MEL-28 melanoma = tested on: SK-MEL-28 melanoma
SK-MEL-5 melanoma = tested on: SK-MEL-5 melanoma
OVCAR-5 ovarian = tested on: OVCAR-5 ovarian
SF-539 CNS = tested on: SF-539 CNS
ACHN renal = tested on: ACHN renal
LXFL 529 NSCLC = tested on: LXFL 529 NSCLC
UACC-257 melanoma = tested on: UACC-257 melanoma
NCI-H460 lung = tested on: NCI-H460 lung
OVCAR-3 ovarian = tested on: OVCAR-3 ovarian
NCI-H226 lung = tested on: NCI-H226 lung
NCI-H23 lung = tested on: NCI-H23 lung
SK-OV-3 ovarian = tested on: SK-OV-3 ovarian
HCC-2998 colon = tested on: HCC-2998 colon
EKVX NSCLC = tested on: EKVX NSCLC
MOLT-4 leukemia = tested on: MOLT-4 leukemia
CAKI-1 renal = tested on: CAKI-1 renal
SR leukemia = tested on: SR leukemia
LOX IMVI melanoma = tested on: LOX IMVI melanoma
SF-295 CNS = tested on: SF-295 CNS
K-562 leukemia = tested on: K-562 leukemia
HOP-62 NSCLC = tested on: HOP-62 NSCLC
OVCAR-4 ovarian = tested on: OVCAR-4 ovarian
SW-620 colon = tested on: SW-620 colon
OVCAR-8 ovarian = tested on: OVCAR-8 ovarian
HT29 colon = tested on: HT29 colon
CCRF-CEM leukemia = tested on: CCRF-CEM leukemia
M14 melanoma = tested on: M14 melanoma
IGROV1 ovarian = tested on: IGROV1 ovarian
786-0 renal = tested on: 786-0 renal
SNB-19 CNS = tested on: SNB-19 CNS
SN12C renal = tested on: SN12C renal
KM12 colon = tested on: KM12 colon
UO-31 renal = tested on: UO-31 renal
HL-60(TB) leukemia = tested on: HL-60(TB) leukemia
COLO 205 colon = tested on: COLO 205 colon
DLD-1 colon = tested on: DLD-1 colon
RXF 393 renal = tested on: RXF 393 renal
U251 CNS = tested on: U251 CNS
UACC-62 melanoma = tested on: UACC-62 melanoma
MALME-3M melanoma = tested on: MALME-3M melanoma
SNB-78 CNS = tested on: SNB-78 CNS
KM20L2 colon = tested on: KM20L2 colon
DMS 114 small cell lung = tested on: DMS 114 small cell lung
MDA-MB-435 = tested on: MDA-MB-435
TK-10 renal = tested on: TK-10 renal
HCT-15 colon = tested on: HCT-15 colon
HOP-92 NSCLC = tested on: HOP-92 NSCLC
DU-145 prostate = tested on: DU-145 prostate
T-47D breast = tested on: T-47D breast
NCI/ADR-RES ovarian = tested on: NCI/ADR-RES ovarian
BT-549 breast = tested on: BT-549 breast
MCF7 breast = tested on: MCF7 breast
MDA-MB-231 breast = tested on: MDA-MB-231 breast
HS 578T breast = tested on: HS 578T breast
PC-3 prostate = tested on: PC-3 prostate
MDA-N = tested on: MDA-N

Compound: CO[C@H](C(=O)O[C@H]1C(=O)N2CC[C@@H]3CCC[C@H]1C32C)c1ccccc1 (stereo partly specified)
- TGI (NCI-H522 lung): > 100 µM
- TGI (A549 NSCLC): > 100 µM
- TGI (HCT-116 colon): > 100 µM
- TGI (SK-MEL-2 melanoma): > 100 µM
- TGI (M19-MEL melanoma): > 100 µM
- TGI (RPMI-8226 leukemia): > 100 µM
- TGI (SF-268 CNS): > 100 µM
- TGI (SK-MEL-28 melanoma): > 100 µM
- TGI (SK-MEL-5 melanoma): > 100 µM
- TGI (OVCAR-5 ovarian): > 100 µM
- TGI (SF-539 CNS): > 100 µM
- TGI (ACHN renal): > 100 µM
- TGI (LXFL 529 NSCLC): > 100 µM
- TGI (UACC-257 melanoma): > 100 µM
- TGI (NCI-H460 lung): > 100 µM
- TGI (OVCAR-3 ovarian): > 100 µM
- TGI (NCI-H226 lung): > 100 µM
- TGI (NCI-H23 lung): > 100 µM
- TGI (SK-OV-3 ovarian): > 100 µM
- TGI (HCC-2998 colon): > 100 µM
- TGI (EKVX NSCLC): > 100 µM
- TGI (MOLT-4 leukemia): > 100 µM
- TGI (CAKI-1 renal): > 100 µM
- TGI (SR leukemia): > 100 µM
- TGI (LOX IMVI melanoma): > 100 µM
- TGI (SF-295 CNS): > 100 µM
- TGI (K-562 leukemia): > 100 µM
- TGI (HOP-62 NSCLC): > 100 µM
- TGI (OVCAR-4 ovarian): > 100 µM
- TGI (SW-620 colon): > 100 µM
- TGI (OVCAR-8 ovarian): > 100 µM
- TGI (HT29 colon): > 100 µM
- TGI (CCRF-CEM leukemia): > 100 µM
- TGI (M14 melanoma): > 100 µM
- TGI (IGROV1 ovarian): > 100 µM
- TGI (786-0 renal): > 100 µM
- TGI (SNB-19 CNS): > 100 µM
- TGI (SN12C renal): > 100 µM
- TGI (KM12 colon): > 100 µM
- TGI (UO-31 renal): > 100 µM
- TGI (HL-60(TB) leukemia): > 100 µM
- TGI (COLO 205 colon): > 100 µM
- TGI (DLD-1 colon): > 100 µM
- TGI (RXF 393 renal): > 100 µM
- TGI (U251 CNS): > 100 µM
- TGI (UACC-62 melanoma): > 100 µM
- TGI (MALME-3M melanoma): > 100 µM
- TGI (SNB-78 CNS): > 100 µM
- TGI (KM20L2 colon): > 100 µM
- TGI (DMS 114 small cell lung): > 100 µM

Compound: CCOC(=O)C1=C(C)NC(C)=C(C(=O)OCCNC(=O)c2ccc(N=[N+]=[N-])cc2)C1c1ccccc1C(F)(F)F (stereo unspecified)
- TGI (NCI-H522 lung): 19.3 µM
- TGI (A549 NSCLC): 21.5 µM
- TGI (HCT-116 colon): 21.5 µM
- TGI (RPMI-8226 leukemia): 18.9 µM
- TGI (SF-268 CNS): 21.5 µM
- TGI (SK-MEL-28 melanoma): 21.5 µM
- TGI (SK-MEL-5 melanoma): 12.7 µM
- TGI (MDA-MB-435): 20.5 µM
- TGI (OVCAR-5 ovarian): 21.5 µM
- TGI (TK-10 renal): 31.1 µM
- TGI (SF-539 CNS): > 31.6 µM
- TGI (HCT-15 colon): 21.5 µM
- TGI (ACHN renal): 21.5 µM
- TGI (HOP-92 NSCLC): 18.9 µM
- TGI (DU-145 prostate): 21.5 µM
- TGI (T-47D breast): 21.5 µM
- TGI (UACC-257 melanoma): 21.5 µM
- TGI (NCI-H460 lung): 21.5 µM
- TGI (OVCAR-3 ovarian): 21.5 µM
- TGI (NCI-H226 lung): 21.5 µM
- TGI (NCI/ADR-RES ovarian): 21.5 µM
- TGI (NCI-H23 lung): 21.5 µM
- TGI (SK-OV-3 ovarian): 21.5 µM
- TGI (HCC-2998 colon): 21.5 µM
- TGI (EKVX NSCLC): 21.5 µM
- TGI (MOLT-4 leukemia): 13.5 µM
- TGI (BT-549 breast): 68.2 µM
- TGI (CAKI-1 renal): 21.5 µM
- TGI (SR leukemia): 21.5 µM
- TGI (LOX IMVI melanoma): > 31.6 µM
- TGI (SF-295 CNS): 21.5 µM
- TGI (MCF7 breast): 12.2 µM
- TGI (MDA-MB-231 breast): 21.5 µM
- TGI (K-562 leukemia): 21.5 µM
- TGI (HOP-62 NSCLC): > 21.5 µM
- TGI (OVCAR-4 ovarian): 21.5 µM
- TGI (HS 578T breast): 21.5 µM
- TGI (PC-3 prostate): 21.5 µM
- TGI (SW-620 colon): 21.5 µM
- TGI (OVCAR-8 ovarian): 21.5 µM
- TGI (HT29 colon): 21.5 µM
- TGI (CCRF-CEM leukemia): 21.5 µM
- TGI (M14 melanoma): 21.5 µM
- TGI (IGROV1 ovarian): 21.5 µM
- TGI (786-0 renal): 21.5 µM
- TGI (MDA-N): 21.5 µM
- TGI (SNB-19 CNS): 21.5 µM
- TGI (SN12C renal): 21.5 µM
- TGI (KM12 colon): 21.5 µM
- TGI (UO-31 renal): 21.5 µM
- TGI (HL-60(TB) leukemia): 14.7 µM
- TGI (COLO 205 colon): 11 µM
- TGI (RXF 393 renal): 21.5 µM
- TGI (U251 CNS): 21.5 µM
- TGI (UACC-62 melanoma): 21.5 µM
- TGI (MALME-3M melanoma): 21.5 µM

Source: PubChem BioAssay (NCI)
